The series is described as follows: activity coefficient (dimensionless); of the first substance listed, at infinite dilution; xn = mol fraction of the nth substance listed. The conditions noted are these: 101.33 kPa, Liquid, Chromatography, x1 = 0.

The results in this text go back to the NIST ThermoML archive (doi:10.1016/j.jct.2016.07.017).

SMILES strings stand for the structures. ± gives the expanded uncertainty stated by the source.

In the case of `c1ccccc1` [benzene] + CC[N+](C)(CC)CCOC.O=S(=O)([N-]S(=O)(=O)C(F)(F)F)C(F)(F)F, the activity coefficient (318.15 K) worked out at 1.03 ± 0.08; the activity coefficient (328.15 K) was 1.04 ± 0.09; the activity coefficient (338.15 K) came out at 1.05 ± 0.09; the activity coefficient (348.15 K) is 1.07 ± 0.09; the activity coefficient (358.15 K) is 1.07 ± 0.09.
With `CCCCO` [butan-1-ol] + CC[N+](C)(CC)CCOC.O=S(=O)([N-]S(=O)(=O)C(F)(F)F)C(F)(F)F, the activity coefficient (318.15 K) stood at 2.96 ± 0.26; the activity coefficient (328.15 K) was determined as 2.63 ± 0.23; the activity coefficient (338.15 K) came to 2.39 ± 0.21; the activity coefficient (348.15 K) was found to be 2.18 ± 0.19; the activity coefficient (358.15 K) is 2 ± 0.17.
On the same counts, the results for `C1CCCCCC1` [cycloheptane] + CC[N+](C)(CC)CCOC.O=S(=O)([N-]S(=O)(=O)C(F)(F)F)C(F)(F)F are 14.9 ± 1.3, 13.7 ± 1.2, 12.7 ± 1.1, 11.8 ± 1 and 11 ± 1.
On the same counts, the results for `C1CCCCC1` [cyclohexane] + CC[N+](C)(CC)CCOC.O=S(=O)([N-]S(=O)(=O)C(F)(F)F)C(F)(F)F are 10.8 ± 0.9, 10 ± 0.9, 9.39 ± 0.81, 8.74 ± 0.75 and 8.3 ± 0.72.
The matching figures for `C1=CCCCC1` [cyclohexene] + CC[N+](C)(CC)CCOC.O=S(=O)([N-]S(=O)(=O)C(F)(F)F)C(F)(F)F: 5.83 ± 0.5, 5.56 ± 0.48, 5.33 ± 0.46, 5.16 ± 0.45 and 4.93 ± 0.43.
`C1CCCCCCC1` [cyclooctane] + CC[N+](C)(CC)CCOC.O=S(=O)([N-]S(=O)(=O)C(F)(F)F)C(F)(F)F: the activity coefficient runs as follows: (318.15 K) 20.4 ± 1.8; (328.15 K) 18.6 ± 1.6; (338.15 K) 17 ± 1.5; (348.15 K) 15.7 ± 1.4; (358.15 K) 14.5 ± 1.3.
The matching figures for `C1CCCC1` [cyclopentane] + CC[N+](C)(CC)CCOC.O=S(=O)([N-]S(=O)(=O)C(F)(F)F)C(F)(F)F: 7.28 ± 0.63, 6.85 ± 0.59, 6.47 ± 0.56, 6.12 ± 0.53 and 5.79 ± 0.5.
As for `CCCCCCCCCC` [decane] + CC[N+](C)(CC)CCOC.O=S(=O)([N-]S(=O)(=O)C(F)(F)F)C(F)(F)F, the activity coefficient by setting is: (318.15 K) 82 ± 7.1; (328.15 K) 72.7 ± 6.3; (338.15 K) 65.4 ± 5.7; (348.15 K) 58.1 ± 5; (358.15 K) 52.6 ± 4.6.
The matching figures for `CCOCC` [diethyl ether] + CC[N+](C)(CC)CCOC.O=S(=O)([N-]S(=O)(=O)C(F)(F)F)C(F)(F)F: 2.62 ± 0.23, 2.6 ± 0.22, 2.6 ± 0.22, 2.59 ± 0.22 and 2.57 ± 0.22.
As to `CC(C)OC(C)C` [diisopropyl ether] + CC[N+](C)(CC)CCOC.O=S(=O)([N-]S(=O)(=O)C(F)(F)F)C(F)(F)F, the activity coefficient reads like this: (318.15 K) 6.4 ± 0.55; (328.15 K) 6.28 ± 0.54; (338.15 K) 6.16 ± 0.53; (348.15 K) 6.03 ± 0.52; (358.15 K) 5.88 ± 0.51.
`CCCOCCC` [dipropyl ether] + CC[N+](C)(CC)CCOC.O=S(=O)([N-]S(=O)(=O)C(F)(F)F)C(F)(F)F: the activity coefficient by setting is: (318.15 K) 6.84 ± 0.59; (328.15 K) 6.58 ± 0.57; (338.15 K) 6.41 ± 0.55; (348.15 K) 6.25 ± 0.54; (358.15 K) 6.07 ± 0.52.
On the same counts, the results for `CCO` [ethanol] + CC[N+](C)(CC)CCOC.O=S(=O)([N-]S(=O)(=O)C(F)(F)F)C(F)(F)F are 1.77 ± 0.15, 1.62 ± 0.14, 1.5 ± 0.13, 1.38 ± 0.12 and 1.28 ± 0.11.
The matching figures for `CCc1ccccc1` [ethylbenzene] + CC[N+](C)(CC)CCOC.O=S(=O)([N-]S(=O)(=O)C(F)(F)F)C(F)(F)F: 2.24 ± 0.19, 2.25 ± 0.19, 2.26 ± 0.19, 2.28 ± 0.2 and 2.29 ± 0.2.
The matching figures for `CCCCCCC` [heptane] + CC[N+](C)(CC)CCOC.O=S(=O)([N-]S(=O)(=O)C(F)(F)F)C(F)(F)F: 26.4 ± 2.3, 24.4 ± 2.1, 22.3 ± 1.9, 21 ± 1.8 and 19.3 ± 1.7.
`C=CCCCC` [hex-1-ene] + CC[N+](C)(CC)CCOC.O=S(=O)([N-]S(=O)(=O)C(F)(F)F)C(F)(F)F: the activity coefficient (318.15 K) is 9.21 ± 0.8; the activity coefficient (328.15 K) was found to be 8.78 ± 0.76; the activity coefficient (338.15 K) was found to be 8.33 ± 0.72; the activity coefficient (348.15 K) came out at 8.07 ± 0.7; the activity coefficient (358.15 K) worked out at 7.64 ± 0.66.
The matching figures for `CCCCCC` [hexane] + CC[N+](C)(CC)CCOC.O=S(=O)([N-]S(=O)(=O)C(F)(F)F)C(F)(F)F: 18.2 ± 1.6, 16.9 ± 1.5, 15.8 ± 1.4, 14.9 ± 1.3 and 14 ± 1.2.
On the same counts, the results for `CO` [methanol] + CC[N+](C)(CC)CCOC.O=S(=O)([N-]S(=O)(=O)C(F)(F)F)C(F)(F)F are 1.33 ± 0.11, 1.26 ± 0.11, 1.15 ± 0.1, 1.09 ± 0.09 and 1.01 ± 0.08.
On the same counts, the results for `CC1CCCCC1` [methylcyclohexane] + CC[N+](C)(CC)CCOC.O=S(=O)([N-]S(=O)(=O)C(F)(F)F)C(F)(F)F are 14.9 ± 1.3, 13.8 ± 1.2, 12.9 ± 1.1, 12 ± 1 and 11.2 ± 1.
In the case of `CCCCCCCCC` [nonane] + CC[N+](C)(CC)CCOC.O=S(=O)([N-]S(=O)(=O)C(F)(F)F)C(F)(F)F, the activity coefficient reads like this: (318.15 K) 55.7 ± 4.8; (328.15 K) 50 ± 4.3; (338.15 K) 45.3 ± 3.9; (348.15 K) 41 ± 3.5; (358.15 K) 37.7 ± 3.3.
The matching figures for `C=CCCCCCC` [oct-1-ene] + CC[N+](C)(CC)CCOC.O=S(=O)([N-]S(=O)(=O)C(F)(F)F)C(F)(F)F: 19.6 ± 1.7, 18.3 ± 1.6, 17.1 ± 1.5, 16.2 ± 1.4 and 15.2 ± 1.3.
The matching figures for `CCCCCCCC` [octane] + CC[N+](C)(CC)CCOC.O=S(=O)([N-]S(=O)(=O)C(F)(F)F)C(F)(F)F: 38.3 ± 3.3, 34.8 ± 3, 31.9 ± 2.8, 29.5 ± 2.6 and 27 ± 2.3.
On the same counts, the results for `CCCC(C)=O` [pentan-2-one] + CC[N+](C)(CC)CCOC.O=S(=O)([N-]S(=O)(=O)C(F)(F)F)C(F)(F)F are 0.853 ± 0.071, 0.862 ± 0.072, 0.87 ± 0.072, 0.884 ± 0.073 and 0.896 ± 0.074.
Consider `CCC(=O)CC` [pentan-3-one] + CC[N+](C)(CC)CCOC.O=S(=O)([N-]S(=O)(=O)C(F)(F)F)C(F)(F)F, for which the activity coefficient (318.15 K) worked out at 0.852 ± 0.071; the activity coefficient (328.15 K) came to 0.873 ± 0.072; the activity coefficient (338.15 K) was found to be 0.889 ± 0.074; the activity coefficient (348.15 K) is 0.906 ± 0.075; the activity coefficient (358.15 K) turned out to be 0.916 ± 0.076.
On to `CCCO` [propan-1-ol] + CC[N+](C)(CC)CCOC.O=S(=O)([N-]S(=O)(=O)C(F)(F)F)C(F)(F)F, for which the activity coefficient (318.15 K) stood at 2.26 ± 0.19; the activity coefficient (328.15 K) turned out to be 2.04 ± 0.18; the activity coefficient (338.15 K) was 1.87 ± 0.16; the activity coefficient (348.15 K) was 1.72 ± 0.15; the activity coefficient (358.15 K) amounted to 1.59 ± 0.13.
On the same counts, the results for `CC(C)O` [propan-2-ol] + CC[N+](C)(CC)CCOC.O=S(=O)([N-]S(=O)(=O)C(F)(F)F)C(F)(F)F are 2.04 ± 0.18, 1.84 ± 0.16, 1.7 ± 0.14, 1.56 ± 0.13 and 1.44 ± 0.12.
For `c1ccncc1` [pyridine] + CC[N+](C)(CC)CCOC.O=S(=O)([N-]S(=O)(=O)C(F)(F)F)C(F)(F)F, the activity coefficient turned out to be 0.6 ± 0.053 (318.15 K); 0.604 ± 0.053 (328.15 K); 0.607 ± 0.053 (338.15 K); 0.615 ± 0.054 (348.15 K); 0.619 ± 0.054 (358.15 K).
The matching figures for `C=Cc1ccccc1` [styrene] + CC[N+](C)(CC)CCOC.O=S(=O)([N-]S(=O)(=O)C(F)(F)F)C(F)(F)F: 1.3 ± 0.11, 1.3 ± 0.11, 1.31 ± 0.11, 1.34 ± 0.11 and 1.36 ± 0.11.
On the same counts, the results for `C1CCOC1` [tetrahydrofuran] + CC[N+](C)(CC)CCOC.O=S(=O)([N-]S(=O)(=O)C(F)(F)F)C(F)(F)F are 0.817 ± 0.068, 0.83 ± 0.069, 0.845 ± 0.07, 0.862 ± 0.072 and 0.867 ± 0.072.
The matching figures for `c1ccsc1` [thiophene] + CC[N+](C)(CC)CCOC.O=S(=O)([N-]S(=O)(=O)C(F)(F)F)C(F)(F)F: 0.906 ± 0.075, 0.912 ± 0.075, 0.925 ± 0.076, 0.937 ± 0.077 and 0.94 ± 0.077.
